Test results as given in EP0341019A2, “Polyether antibiotic” (priority 1988, dated 1989).
Converted amounts (≈) assume the structure as drawn.

Assays:
[1] = test system: Staphylococcus aureus X1.1; assay type: cell-based; conditions: X1.1, 24 h
[2] = test system: Staphylococcus aureus X400; assay type: cell-based; conditions: X400, 24 h
[3] = test system: Staphylococcus epidermidis 222; assay type: cell-based; conditions: Staphylococcus epidermidis, 222, 24 h
[4] = test system: Streptococcus faecalis 2041; assay type: cell-based; conditions: Enterococcus faecalis, 2041, 24 h
[5] = test system: Haemophilus influenzae 76; assay type: cell-based; conditions: Haemophilus influenzae, 76, 24 h
Escherichia coli TEM = assay type: cell-based; conditions: 24 h
[6] = test system: Enterobacter aerogenes C32; assay type: cell-based; conditions: Klebsiella aerogenes, C32, 24 h
Klebsiella sp. = assay type: cell-based; conditions: 24 h
[7] = test system: Clostridium difficile 2994; assay type: cell-based; conditions: Clostridioides difficile, 24-hour incubation
Source text: (§1) The formula 1 compounds (A82810 compounds) have antibacterial and anticoccidial activity. A82810 compounds are especially active against anaerobic bacteria. […]

[8] = test system: Clostridium septicum 1128; assay type: cell-based; conditions: 24-hour incubation
Source text: as §1

Salmonella sp = assay type: cell-based; conditions: 24-hour incubation
Source text: as §1

Shigella sonnei = assay type: cell-based; conditions: 24-hour incubation
Source text: as §1

[9] = test system: Pseudomonas aeruginosa X239; assay type: cell-based; conditions: X239, 24 h
Proteus sp. = assay type: cell-based; conditions: 24 h
[10] = test system: Clostridium perfringens 81; assay: microbe, parasite or virus in culture; assay type: cell-based; conditions: Clostridium perfringens, 81, 24 h
[11] = test system: Eubacterium aerofaciens 1235; assay type: cell-based; conditions: Collinsella aerofaciens, 1235, 24 h
[12] = test system: Peptostreptococcus anaerobius 1451; assay type: cell-based; conditions: Peptostreptococcus anaerobius, 1451, 24 h
[13] = test system: Peptostreptococcus intermedius 1624; assay type: cell-based; conditions: Peptostreptococcus, 1624, 24 h
Bacteroides fragilis 111 = assay type: cell-based; conditions: Bacteroides fragilis, 111, 24 h
[14] = test system: Bacteroides fragilis 1877; assay type: cell-based; conditions: Bacteroides fragilis, 1877, 24 h
[15] = test system: Fusobacterium symbiosum 1470; assay type: cell-based; conditions: Fusobacterium, 1470, 24 h
Treponema hyodysenteriae = assay: growth inhibition of swine dysentery agent; assay type: cell-based
Source text: In another aspect the A82810 compounds are useful in the treatments of swine dysentery. A82810 inhibits the growth of Treponema hyodysenteriae, a causative agent of swine dysentery, at levels as low as 1.56 mcg/mL. A preferred method of administration to swine is by incorporation of an appropriate amount of an A82810 compound into the feed ration or drinking water. An appropriate amount will relate to whether the treatment is to prevent or to cure infection. Usually, a lower concentration of active compound is needed to prevent infection than is required for to eliminate infection in animals already afflicted. In general, amounts in the range of from about 20 to about 100 grams of A82810 compound per ton of feed are effective to prevent infection. Amounts in the range of from about 100 to about 500 g of A82810 compound per ton of feed are recommended for treating swine suffering from dysentery. These amounts provide from about 1 to about 5 mg/kg of body weight per day (prophylactic treatment) or from about 5 to about 25 mg/kg of body weight per day (treatment of infected animal). When added to the drinking water, amounts of from about 0.04 to about 0.2 g (prophylactic) or from about 0.2 to about 1 g (therapeutic) of A82810 compound per gallon of water are recommended.

[16] = test system: Herpes simplex viruses (HSV I); assay: antiviral tissue-culture test; assay type: cell-based, Herpes simplex virus
[17] = test system: Great Lakes influenza virus; assay type: cell-based; conditions: tissue culture
adult stablefly = assay: insecticide test
Source text: (§2) The A82810 compounds are also useful as insecticides. For example, A82810 is active against southern armyworm, spider mite and blowfly larvae at levels as low as 100 ppm and against adult stablefly at levels as low as 50 ppm.

blowfly larvae = assay: insecticide test
Source text: as §2

southern armyworm = assay: insecticide test
Source text: as §2

spider mite = assay: insecticide test
Source text: as §2

[18] = test system: E. acervulina Strain FS-316; assay: anticoccidial feed test in infected chickens, ionophore-resistant strain; assay type: in vivo
[19] = test system: Eimeria maxima Strain FS-177; assay: anticoccidial feed test in infected chickens, ionophore-sensitive strain; assay type: in vivo
[20] = test system: Eimeria acervulina Strain FS-273 and E. tenella Strain FS-456; assay: anticoccidial feed test in infected chickens, ionophore-resistant strains; assay type: in vivo

Compound: CC[C@@H](O)[C@]1(C)C[C@H](C)[C@@](O)([C@H]2C[C@H](C)[C@H]([C@]3(C)C[C@@H](O[C@H]4CC[C@H](OC)[C@@H](C)O4)[C@H]([C@]4(C)CC[C@@]5(O[C@H]([C@@H](C)[C@@H](OC)[C@H](C)C(=O)O)[C@H](C)[C@@H](OC)[C@H]5C)O4)O3)O2)O1 [Example A82810]
- MIC [1]: 1 µg/mL (≈ 1.19 µM)
- MIC [2]: 1 µg/mL (≈ 1.19 µM)
- MIC [3]: 0.5 µg/mL (≈ 0.593 µM)
- MIC [4]: 1 µg/mL (≈ 1.19 µM)
- MIC [5]: 64 µg/mL (≈ 75.9 µM)
- MIC (Escherichia coli TEM): > 128 µg/mL
- MIC [6]: 8 µg/mL (≈ 9.49 µM)
- MIC (Klebsiella sp.): > 128 µg/mL
- MIC [7]: 0.5 µg/mL (≈ 0.593 µM)
- MIC [8]: 0.5 µg/mL (≈ 0.593 µM)
- MIC (Salmonella sp): > 128 µg/mL
- MIC (Shigella sonnei): 2 µg/mL (≈ 2.37 µM)
- MIC [9]: 0.25 µg/mL (≈ 0.297 µM)
- MIC (Proteus sp.): > 128 µg/mL
- MIC [10]: 0.5 µg/mL (≈ 0.593 µM)
- MIC [11]: ≤ 0.25 µg/mL
- MIC [12]: ≤ 0.25 µg/mL
- MIC [13]: ≤ 0.25 µg/mL
- MIC (Bacteroides fragilis 111): 8 µg/mL (≈ 9.49 µM)
- MIC [14]: 8 µg/mL (≈ 9.49 µM)
- MIC [15]: 0.5 µg/mL (≈ 0.593 µM)
- inhibits the growth at levels as low as (Treponema hyodysenteriae): 1.56 µg/mL
- active at levels as low as [16]: 1.56 µg/mL
- active at a level of [17]: 250 µg/mL
- active at levels as low as (adult stablefly): 50 ppm
- active at levels as low as (blowfly larvae): 100 ppm
- active at levels as low as (southern armyworm): 100 ppm
- active at levels as low as (spider mite): 100 ppm
- AVERAGE INTESTINAL LESION SCORES ([18]; 0.5 ppm): 7.3
- WEIGHT GAIN, PERCENT OF CONTROL ([18]; 0.5 ppm): 72% OF CONTROL
- AVERAGE INTESTINAL LESION SCORES ([18]; 1 ppm): 7.8
- WEIGHT GAIN, PERCENT OF CONTROL ([18]; 1 ppm): 73% OF CONTROL
- AVERAGE INTESTINAL LESION SCORES ([18]; 1.5 ppm): 7.9
- WEIGHT GAIN, PERCENT OF CONTROL ([18]; 1.5 ppm): 73% OF CONTROL
- AVERAGE INTESTINAL LESION SCORES ([18]; 2 ppm): 8.8
- WEIGHT GAIN, PERCENT OF CONTROL ([18]; 2 ppm): 76% OF CONTROL
- AVERAGE INTESTINAL LESION SCORES ([19]; 2 ppm): 1.9
- AVERAGE INTESTINAL LESION SCORES ([19]; 6 ppm): 0.6
- WEIGHT GAIN, PERCENT OF CONTROL ([19]; 6 ppm): 108% OF CONTROL
- AVERAGE INTESTINAL LESION SCORES ([19]; 10 ppm): 0.2
- WEIGHT GAIN, PERCENT OF CONTROL ([19]; 10 ppm): 102% OF CONTROL
- LESION SCORE ([20]; 2 ppm): 7.2
- PERCENT REDUCTION IN OOCYST PRODUCTION ([20]; 2 ppm): 22%
- WEIGHT GAIN, PERCENT OF CONTROL ([20]; 2 ppm): 68% OF CONTROL
- LESION SCORE ([20]; 6 ppm): 3.7
- PERCENT REDUCTION IN OOCYST PRODUCTION ([20]; 6 ppm): 65%
- WEIGHT GAIN, PERCENT OF CONTROL ([20]; 6 ppm): 89% OF CONTROL
- LESION SCORE ([20]; 10 ppm): 2.0
- PERCENT REDUCTION IN OOCYST PRODUCTION ([20]; 10 ppm): 83%
- WEIGHT GAIN, PERCENT OF CONTROL ([20]; 10 ppm): 86% OF CONTROL
- pKa (physchem): 6.6
